Laboratory results: publication PMC8402619 (Viruses, 2021)

How the values were obtained:
CYP2B6 = assay: CYP induction in cryopreserved human hepatocytes; conditions: for mRNA Mean Fold Change ± SD CYP2B6: 48 h, n = 3 donors, vs DMSO vehicle
[1] = Distribution between red blood cells and plasma in human blood; type: in vitro ADME
CYP2D6 = CYP2D6 (Homo sapiens, UniProt P10635); assay: Time-dependent CYP inhibition in pooled human liver microsomes; type: in vitro ADME
MATE2K = target: T1, MATE2K (Homo sapiens, UniProt Q86VL8); assay: Islatravir uptake as substrate, MDCKII vs MDCKII-MATE2K cells; type: in vitro ADME
T1 construct: expressed in transfected cells; host or cells: MDCKII

OCT1 = target: T2, OCT1 (Homo sapiens, UniProt O15245); assay: Inhibition of transporter-mediated probe uptake in CHO-K1-OCT1 cells; type: in vitro ADME
T2 construct: expressed in transfected cells; host or cells: CHO-K1
T2 sequence (O15245 1-554): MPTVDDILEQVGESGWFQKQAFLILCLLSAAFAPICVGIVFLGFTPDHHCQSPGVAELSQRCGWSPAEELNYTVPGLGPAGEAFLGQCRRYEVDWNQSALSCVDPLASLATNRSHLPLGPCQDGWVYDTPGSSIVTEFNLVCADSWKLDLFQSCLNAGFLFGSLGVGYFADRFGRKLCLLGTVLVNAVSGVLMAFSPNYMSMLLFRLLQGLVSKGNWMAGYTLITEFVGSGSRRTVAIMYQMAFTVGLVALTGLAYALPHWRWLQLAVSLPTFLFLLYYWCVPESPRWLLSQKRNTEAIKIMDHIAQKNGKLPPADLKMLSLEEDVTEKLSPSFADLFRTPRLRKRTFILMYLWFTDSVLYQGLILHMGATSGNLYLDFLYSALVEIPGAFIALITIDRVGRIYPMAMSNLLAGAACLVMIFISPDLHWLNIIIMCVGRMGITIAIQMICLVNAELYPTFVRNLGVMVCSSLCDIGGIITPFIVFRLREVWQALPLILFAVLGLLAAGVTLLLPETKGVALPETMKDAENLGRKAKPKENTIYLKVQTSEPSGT

UGT1A1 = target: T3, UGT1A1 (Homo sapiens, UniProt P22309); type: in vitro ADME
T3 sequence (P22309 26-533): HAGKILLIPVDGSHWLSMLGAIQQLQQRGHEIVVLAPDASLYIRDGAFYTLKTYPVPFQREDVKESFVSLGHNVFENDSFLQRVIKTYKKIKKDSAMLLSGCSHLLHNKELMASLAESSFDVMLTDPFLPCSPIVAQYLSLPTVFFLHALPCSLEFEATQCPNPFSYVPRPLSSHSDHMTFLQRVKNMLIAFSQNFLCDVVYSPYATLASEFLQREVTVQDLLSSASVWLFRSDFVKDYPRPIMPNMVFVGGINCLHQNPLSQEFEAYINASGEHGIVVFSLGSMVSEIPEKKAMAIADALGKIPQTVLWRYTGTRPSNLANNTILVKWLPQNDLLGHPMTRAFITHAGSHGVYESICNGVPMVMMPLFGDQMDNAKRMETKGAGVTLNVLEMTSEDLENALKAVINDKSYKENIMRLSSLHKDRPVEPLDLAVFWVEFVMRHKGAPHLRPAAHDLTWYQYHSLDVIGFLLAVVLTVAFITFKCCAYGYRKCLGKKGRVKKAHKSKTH

MDR1 P-gp = MDR1 P-gp (Homo sapiens, UniProt P08183); assay: Uptake in MDR1 P-gp-containing Sf9 membrane vesicles (substrate); type: in vitro ADME; set-up: expressed in transfected cells
OATP1B1 = target: T4, OATP1B1 (Homo sapiens, UniProt Q9Y6L6); assay: Inhibition of transporter-mediated probe uptake in HEK293-OATP1B1 cells; type: in vitro ADME
T4 construct: host or cells: HEK293
T4 sequence (Q9Y6L6 1-691): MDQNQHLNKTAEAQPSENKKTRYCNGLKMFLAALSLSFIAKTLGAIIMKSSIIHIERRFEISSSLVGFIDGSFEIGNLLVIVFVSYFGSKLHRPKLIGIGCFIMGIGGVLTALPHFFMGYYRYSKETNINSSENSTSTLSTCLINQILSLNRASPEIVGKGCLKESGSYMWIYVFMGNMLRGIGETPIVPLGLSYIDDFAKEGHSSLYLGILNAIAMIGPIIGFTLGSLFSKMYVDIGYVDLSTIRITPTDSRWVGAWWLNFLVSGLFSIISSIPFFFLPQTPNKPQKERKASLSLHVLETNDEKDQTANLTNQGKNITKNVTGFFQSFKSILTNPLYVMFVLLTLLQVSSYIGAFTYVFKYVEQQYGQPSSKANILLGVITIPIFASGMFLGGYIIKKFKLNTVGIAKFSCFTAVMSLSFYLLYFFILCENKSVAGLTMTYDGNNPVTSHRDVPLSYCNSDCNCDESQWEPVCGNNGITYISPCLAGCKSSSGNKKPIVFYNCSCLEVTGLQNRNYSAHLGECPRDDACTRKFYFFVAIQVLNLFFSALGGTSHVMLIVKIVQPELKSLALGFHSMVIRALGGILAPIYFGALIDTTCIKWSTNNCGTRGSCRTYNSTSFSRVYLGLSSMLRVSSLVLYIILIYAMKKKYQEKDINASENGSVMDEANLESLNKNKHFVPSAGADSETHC

HIV-1 = conditions: cited from earlier work
MRP4 = target: T5, MRP4 (Homo sapiens, UniProt O15439); assay: Inhibition of ATP-dependent probe uptake in Sf9 membrane vesicles; type: in vitro ADME; conditions: MRP4-mediated ATP-dependent uptake of folic acid
T5 construct: purchased Thermo Fisher Scientific; host or cells: Sf9

[2] = [14C]islatravir 5 µM, presence of ATP, 10 min, mean ± standard deviation

Chain of MDR1 P-gp (P08183 whole entry): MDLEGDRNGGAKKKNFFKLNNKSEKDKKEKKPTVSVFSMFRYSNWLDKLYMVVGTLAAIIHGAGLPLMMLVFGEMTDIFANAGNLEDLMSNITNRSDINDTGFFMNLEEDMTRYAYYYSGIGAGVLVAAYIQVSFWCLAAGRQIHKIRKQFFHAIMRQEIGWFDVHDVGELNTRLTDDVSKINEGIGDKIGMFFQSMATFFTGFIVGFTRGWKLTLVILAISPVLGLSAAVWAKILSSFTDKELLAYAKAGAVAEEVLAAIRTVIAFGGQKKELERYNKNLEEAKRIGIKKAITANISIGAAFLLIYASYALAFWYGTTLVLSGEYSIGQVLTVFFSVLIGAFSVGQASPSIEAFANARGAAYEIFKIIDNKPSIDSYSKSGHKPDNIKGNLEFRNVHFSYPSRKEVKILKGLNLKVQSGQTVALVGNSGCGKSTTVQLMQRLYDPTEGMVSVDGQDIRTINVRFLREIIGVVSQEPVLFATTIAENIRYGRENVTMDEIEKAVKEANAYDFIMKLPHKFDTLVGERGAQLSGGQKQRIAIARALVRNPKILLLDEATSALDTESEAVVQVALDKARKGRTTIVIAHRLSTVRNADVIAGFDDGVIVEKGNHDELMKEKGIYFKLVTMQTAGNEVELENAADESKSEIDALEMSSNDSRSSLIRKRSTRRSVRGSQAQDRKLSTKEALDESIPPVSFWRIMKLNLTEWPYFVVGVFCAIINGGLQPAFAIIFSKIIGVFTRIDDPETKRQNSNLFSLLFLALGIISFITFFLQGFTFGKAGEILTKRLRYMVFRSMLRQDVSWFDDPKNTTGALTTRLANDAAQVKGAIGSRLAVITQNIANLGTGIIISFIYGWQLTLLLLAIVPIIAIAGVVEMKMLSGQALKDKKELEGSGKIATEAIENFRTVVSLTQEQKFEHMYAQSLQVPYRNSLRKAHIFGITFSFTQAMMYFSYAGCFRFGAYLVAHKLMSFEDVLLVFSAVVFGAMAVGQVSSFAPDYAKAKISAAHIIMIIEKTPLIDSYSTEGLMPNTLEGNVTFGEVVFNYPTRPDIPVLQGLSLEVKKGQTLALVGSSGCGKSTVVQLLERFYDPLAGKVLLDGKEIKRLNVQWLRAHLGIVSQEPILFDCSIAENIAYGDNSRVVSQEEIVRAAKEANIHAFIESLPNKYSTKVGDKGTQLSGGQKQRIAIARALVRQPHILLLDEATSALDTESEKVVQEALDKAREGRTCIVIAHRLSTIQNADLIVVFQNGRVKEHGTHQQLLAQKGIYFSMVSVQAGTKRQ
T1 sequence (Q86VL8 1-566 isoform Q86VL8-3): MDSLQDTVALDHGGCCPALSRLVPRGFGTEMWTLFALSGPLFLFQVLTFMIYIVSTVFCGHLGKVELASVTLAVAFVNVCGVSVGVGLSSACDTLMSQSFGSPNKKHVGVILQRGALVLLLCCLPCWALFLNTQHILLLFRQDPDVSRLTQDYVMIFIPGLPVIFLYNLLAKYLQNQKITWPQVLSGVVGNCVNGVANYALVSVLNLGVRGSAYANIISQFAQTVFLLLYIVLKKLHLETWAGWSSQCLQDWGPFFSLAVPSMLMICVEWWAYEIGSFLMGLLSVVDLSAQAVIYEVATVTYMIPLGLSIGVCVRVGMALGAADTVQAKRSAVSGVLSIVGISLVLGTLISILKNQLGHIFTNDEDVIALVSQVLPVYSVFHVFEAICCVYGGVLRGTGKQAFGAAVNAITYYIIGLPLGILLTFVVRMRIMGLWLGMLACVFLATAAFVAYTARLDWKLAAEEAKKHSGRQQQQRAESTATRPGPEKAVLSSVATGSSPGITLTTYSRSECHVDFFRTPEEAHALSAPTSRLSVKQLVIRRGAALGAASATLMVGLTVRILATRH
Chain of CYP2D6 (P10635 whole entry): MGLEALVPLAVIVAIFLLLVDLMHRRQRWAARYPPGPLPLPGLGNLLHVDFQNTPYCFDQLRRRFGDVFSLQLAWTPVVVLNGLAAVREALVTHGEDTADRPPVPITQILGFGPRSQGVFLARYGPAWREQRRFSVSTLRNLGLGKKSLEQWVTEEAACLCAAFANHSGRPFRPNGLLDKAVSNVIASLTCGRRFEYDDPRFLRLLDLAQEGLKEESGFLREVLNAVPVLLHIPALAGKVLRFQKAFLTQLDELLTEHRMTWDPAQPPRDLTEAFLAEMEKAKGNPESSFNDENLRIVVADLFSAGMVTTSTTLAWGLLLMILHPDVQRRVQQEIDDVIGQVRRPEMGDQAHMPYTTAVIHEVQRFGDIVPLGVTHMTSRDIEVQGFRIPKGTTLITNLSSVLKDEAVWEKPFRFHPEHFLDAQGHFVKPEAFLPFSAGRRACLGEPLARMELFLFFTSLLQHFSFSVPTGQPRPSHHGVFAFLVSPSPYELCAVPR
T5 sequence (O15439 whole entry): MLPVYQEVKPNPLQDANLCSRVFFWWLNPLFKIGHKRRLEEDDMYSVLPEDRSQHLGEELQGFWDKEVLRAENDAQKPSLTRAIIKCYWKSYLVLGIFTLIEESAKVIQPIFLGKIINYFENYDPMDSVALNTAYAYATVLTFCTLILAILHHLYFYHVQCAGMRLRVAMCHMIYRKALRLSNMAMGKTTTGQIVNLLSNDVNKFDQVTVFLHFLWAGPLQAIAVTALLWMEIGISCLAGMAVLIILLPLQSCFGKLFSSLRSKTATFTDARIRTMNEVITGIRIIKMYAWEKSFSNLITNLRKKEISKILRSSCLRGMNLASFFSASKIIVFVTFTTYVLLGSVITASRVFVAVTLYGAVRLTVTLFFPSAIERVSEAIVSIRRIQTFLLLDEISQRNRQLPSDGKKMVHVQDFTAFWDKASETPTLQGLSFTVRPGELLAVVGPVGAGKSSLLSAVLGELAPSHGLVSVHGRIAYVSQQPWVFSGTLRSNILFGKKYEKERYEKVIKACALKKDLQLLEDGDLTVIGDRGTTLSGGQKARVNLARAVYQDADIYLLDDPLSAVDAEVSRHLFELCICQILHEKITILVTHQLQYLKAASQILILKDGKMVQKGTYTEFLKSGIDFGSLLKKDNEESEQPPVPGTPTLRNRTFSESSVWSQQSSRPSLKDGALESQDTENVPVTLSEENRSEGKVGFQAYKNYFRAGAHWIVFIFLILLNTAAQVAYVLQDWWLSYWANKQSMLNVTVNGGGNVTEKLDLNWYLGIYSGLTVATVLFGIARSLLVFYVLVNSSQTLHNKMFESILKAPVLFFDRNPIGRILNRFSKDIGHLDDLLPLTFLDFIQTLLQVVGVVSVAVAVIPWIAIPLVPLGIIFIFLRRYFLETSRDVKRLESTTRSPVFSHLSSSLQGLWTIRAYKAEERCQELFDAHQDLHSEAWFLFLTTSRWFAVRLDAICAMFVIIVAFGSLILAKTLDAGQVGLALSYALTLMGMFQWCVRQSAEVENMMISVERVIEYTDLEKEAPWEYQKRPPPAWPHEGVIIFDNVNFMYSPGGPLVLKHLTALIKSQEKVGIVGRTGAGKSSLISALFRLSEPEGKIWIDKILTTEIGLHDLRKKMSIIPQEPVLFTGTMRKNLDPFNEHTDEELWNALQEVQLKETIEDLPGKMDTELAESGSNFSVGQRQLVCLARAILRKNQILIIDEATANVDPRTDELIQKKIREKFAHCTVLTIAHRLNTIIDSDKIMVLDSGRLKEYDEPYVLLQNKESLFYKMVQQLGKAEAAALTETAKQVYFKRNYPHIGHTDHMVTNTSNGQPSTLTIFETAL

C#C[C@]1(CO)O[C@@H](n2cnc3c(N)nc(F)nc32)C[C@@H]1O [Islatravir, 4′-Ethynyl-2-fluoro-2′-deoxyadenosine]
mRNA Mean Fold Change ± SD CYP2B6 (CYP2B6; 0.1 µM): 0.5 ± 0.1 | mRNA Mean Fold Change ± SD CYP2B6 (CYP2B6; 0.5 µM): 0.5 ± 0.2 | mRNA Mean Fold Change ± SD CYP2B6 (CYP2B6; 1 µM): 0.7 ± 0.2 | mRNA Mean Fold Change ± SD CYP2B6 (CYP2B6; 5 µM): 0.7 ± 0.1 | mRNA Mean Fold Change ± SD CYP2B6 (CYP2B6; 10 µM): 0.9 ± 0.3 | mRNA Mean Fold Change ± SD CYP2B6 (CYP2B6; 20 µM): 0.4 ± 0.3 | mRNA response relative to positive control (CYP2B6; CYP2B6, each tested concentration 0.1-20 µM): less than 20% | enzyme activity, fold of solvent control (CYP2B6; CYP2B6 bupropion hydroxylation, all islatravir concentrations): ≤ 1.1 fold | concentration dependence of blood:plasma partitioning ([1]; 0.01 to 10 µM): did not exhibit concentration-dependent partitioning | blood plasma ratio at 60 min, 0.1 µM ([1]; whole blood, human blood, 0.1 µM, ± standard error, read-out: mean blood:plasma concentration ratio): 1.3 | time-dependent inhibition (CYP2D6; CYP2D6, pre-incubation of 10 and 50 µM for up to 30 min): no time-dependent inhibition | DDI Potential (CYP2D6; CYP2D6 time dependent inhibition): Low risk ^h | IC50 (CYP2D6; time dependent, CYP2D6, read-out: Islatravir IC50): > 50 µM | Islatravir Uptake Control Cells (MATE2K; MATE2K row, MDCKII control cells, 2 µM [14C]islatravir, 20 min, mean ± SD, n = 3): 3.12 ± 0.17 pmole/10^6 Cells | Conclusions (MATE2K; MATE2K substrate assessment): Non-substrate | Fold-Difference (MATE2K; MATE2K, uptake into transporter-expressing cells to control cells, 20 min): 1.14 | Islatravir Uptake Transporter-Expressing Cells (MATE2K; MDCKII-MATE2K, 2 µM [14C]islatravir, 20 min, mean ± SD, n = 3): 3.56 ± 0.17 pmole/10^6 Cells | IC50 (OCT1; OCT1-mediated uptake of metformin, read-out: Islatravir IC50): > 300 µM | Maximum Unbound Inlet Concentration (Iin,max,u) to IC50 Ratio (OCT1; OCT1, 60 mg dose): <0.035 | DDI Potential (OCT1; OCT1 inhibition, FDA, EMA, PMDA guidance): Low risk | DDI Potential (UGT1A1; UGT1A1 reversible inhibition, FDA, EMA, PMDA guidance): Low risk ^g | Intestinal Concentration (Igut) to Ki,u Ratio (UGT1A1; UGT1A1 reversible, Igut = 60 mg/250 mL = 818 µM): <16.4 µM | IC50 (UGT1A1; reversible, UGT1A1 estradiol 3-glucuronidation, read-out: Islatravir IC50): > 100 µM | uptake into control vesicles (MDR1 P-gp; [2]): 5.7 ± 2.1 pmole/mg protein | uptake into membrane vesicles containing MDR1 P-gp (MDR1 P-gp; [2]): 3.7 ± 1.3 pmole/mg protein | MDR1 P-gp substrate assessment (MDR1 P-gp; uptake not ATP-dependent): not a substrate of MDR1 P-gp | IC50 (OATP1B1; OATP1B1-mediated uptake of pitavastatin, read-out: Islatravir IC50): > 300 µM | Maximum Unbound Inlet Concentration (Iin,max,u) to IC50 Ratio (OATP1B1; OATP1B1, 60 mg dose): <0.035 | DDI Potential (OATP1B1; OATP1B1 inhibition, FDA, EMA, PMDA guidance): Low risk | tolerability (HIV-1; participants with and without HIV across a range of doses): generally well tolerated | duration of viral load reduction maintained (HIV-1; single administration at a dose as low as 0.5 mg): 7 days | duration of viral load suppression (HIV-1; treatment-naïve PLWH, oral doses between 0.5 and 30 mg): at least 7 days | IC50 (MRP4): > 100 µM
